Laboratory results: patent US20180066241A1, “PRO-APOPTOTIC SET AND PP2A PEPTIDES” (Universite Pierre Et Marie Curie (Paris 6), priority 2015, published 2018)

How the values were obtained:
[1] = biological target: SET protein (Homo sapiens, UniProt Q01105); assay: Binding assay on cellulose-bound overlapping PP2Ac peptides incubated with SET protein; conditions: four overlapping dodecapeptides, anti-SET antibody, ECL detection
Experimental: (§1) FIG. 1A and 1B show determination of the binding site of PP2A to SET and vice versa. A) Overlapping dodecapeptides with two amino acid shift covering the whole PP2A protein were bound to a solid support. The membrane was incubated sequentially with SET protein, and anti-SET antibody, followed by a peroxidase-labeled secondary antibody. […] The sequence corresponding to the identified spots is shown. B) Overlapping dodecapeptides with two amino acid shift covering the whole human SET protein were bound to a solid support. The membrane was incubated sequentially with PP2A protein, and anti-PP2A antibody, followed by a peroxidase-labeled secondary antibody. […] The sequence corresponding to the identified spots is shown.
(§2) Overlapping peptides covering the whole human PP2Ac or SET sequence were prepared by automated spot synthesis (Abimed, Langerfeld, Germany) onto an amino-derived cellulose membrane, as described (Frank and Overwin, 1996; Gausepohl et al. 1992). The membranes were blocked, incubated with purified recombinant SET or PP2A protein, after several washing steps, incubated with anti-SET2 (Bethyl Laboratories) or anti-PP2Ac antibody (Santa Cruz), and followed by PO-conjugated secondary antibody. Protein interactions were visualized using ECL system (Pierce). […]

[2] = biological target: PP2Ac protein (Homo sapiens, UniProt P67775); assay: Binding assay on cellulose-bound overlapping SET peptides incubated with PP2A protein; conditions: six overlapping dodecapeptides, anti-PP2Ac antibody, ECL detection
Chain of PP2Ac protein (P67775 whole entry): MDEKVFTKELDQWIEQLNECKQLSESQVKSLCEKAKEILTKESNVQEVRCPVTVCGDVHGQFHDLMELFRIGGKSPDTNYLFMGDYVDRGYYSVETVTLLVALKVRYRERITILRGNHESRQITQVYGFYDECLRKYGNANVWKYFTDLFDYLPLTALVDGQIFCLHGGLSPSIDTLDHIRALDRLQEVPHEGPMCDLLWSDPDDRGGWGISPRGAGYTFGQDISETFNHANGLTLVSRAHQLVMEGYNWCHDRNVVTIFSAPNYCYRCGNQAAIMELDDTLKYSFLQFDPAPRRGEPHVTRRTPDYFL
Experimental: as §1, §2

[3] = tested on: H1299 cell line; assay: Detection of apoptosis by Annexin-V-FITC staining, H1299; format: cell-based, Human; conditions: H1299 cells, peptide 100 μM for 24 h, compared to control non treated cells
Experimental: (§3) H1975 and H1299 cell lines were cultured in the presence or in the absence (control) of the Mut3DPT-PP2Ac peptide at a concentration of 100 μM for 24 h. Apoptosis was detected by Annexin V-FITC staining and analyzed by flow cytometry. Mut3-DPT-PP2A is VKKKKIKAEIKI-ETVTLLVALKVRYRERIT (SEQ ID NO: 32).
(§4) Human non small cell lung carcinoma cell lines H1975 and H1299, as well as breast cancer cell line MDA-MB231 were cultured in DMEM (Gibco Life technologies) medium supplemented with 10% FCS.
(§5) Apopotic cells were detected using Annexin-V (-FITC from BD biosciences) as described by the manufacturer. Briefly, the cells were washed in lx binding buffer, centrifugated and then resuspended in 200 μL of 1× binding buffer containing Annexin V-FITC and propidium iodide (PI). After incubation at room temperature in the dark for 10 min, cells were analyzed with FACS Calibur cytofluometer (BD Biosciences).
(§6) The effect of peptides treatment was compared to untreated cells. The peptides were used at 100 μM for 24 h.

[4] = tested on: H1975 cell line; assay: Detection of apoptosis by Annexin-V-FITC staining, H1975; format: cell-based, Human; conditions: H1975 cells, peptide 100 μM for 24 h, compared to control non treated cells
Experimental: as §3, §4, §5, §6

[5] = tested on: Jok1 cell line; assay: Detection of apoptosis by Annexin-V-FITC staining, Jok1; format: cell-based, Human; conditions: Jok1 cells, peptide 100 μM for 24 h, compared to control non treated cells
Experimental: as §3, with “Daudi, Raji” for “H1975”, “Jok 1” for “H1299”, “Mut3DPT-PP2A” for “Mut3DPT-PP2Ac”
(§7) Human B lymphoblast Daudi cell line, human lymphoblast-like Raji cell line and a Hairy cell leukemia-derived cell line Jok1 were cultured in DMEM (Gibco Life technologies) medium supplemented with 10% FCS.
(§8) Apopotic cells were detected using Annexin-V (-FITC from BD biosciences) as described above.
(§9) The effect of Mut3DPT-PP2Ac peptide treatment was compared to untreated cells. The peptides were used at 100 μM for 24 h.

[6] = tested on: Raji cell line; assay: Detection of apoptosis by Annexin-V-FITC staining, Raji; format: cell-based, Human; conditions: Raji cells, peptide 100 μM for 24 h, compared to control non treated cells
Experimental: as §3, with “Daudi, Raji” for “H1975”, “Jok 1” for “H1299”, “Mut3DPT-PP2A” for “Mut3DPT-PP2Ac”
as §7, §8, §9

[7] = tested on: Daudi cell line; assay: Detection of apoptosis by Annexin-V-FITC staining, Daudi; format: cell-based, Human; conditions: Daudi cells, peptide 100 μM for 24 h, compared to control non treated cells
Experimental: as §3, with “Daudi, Raji” for “H1975”, “Jok 1” for “H1299”, “Mut3DPT-PP2A” for “Mut3DPT-PP2Ac”
as §7, §8, §9

[8] = tested on: MDA-MB231 cell line; assay: Detection of apoptosis by Annexin-V-FITC staining, MDA-MB231; format: cell-based, Human; conditions: MDA-MB231 cells, peptide 100 μM for 24 h, compared to control non treated cells
Experimental: MDA-MB231 cell line was cultured in the presence or in the absence (control) of the Mut3DPT-SET peptide at a concentration of 100 μM for 24 h. Apoptosis was detected by Annexin V-FITC staining and analyzed by flow cytometry. Mut3-DPT-SET is VKKKKIKAEIKI-[…] (SEQ ID NO: 33).
as §4, §5, §6

Chain of SET protein (Q01105 1-277 isoform Q01105-2): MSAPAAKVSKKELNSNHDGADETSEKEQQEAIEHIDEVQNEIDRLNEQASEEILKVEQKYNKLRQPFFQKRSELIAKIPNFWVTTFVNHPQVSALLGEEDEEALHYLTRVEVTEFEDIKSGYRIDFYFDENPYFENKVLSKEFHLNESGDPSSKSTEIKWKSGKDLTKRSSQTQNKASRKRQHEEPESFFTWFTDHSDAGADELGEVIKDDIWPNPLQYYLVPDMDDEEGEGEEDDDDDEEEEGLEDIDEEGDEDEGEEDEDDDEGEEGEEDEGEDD

ETVTLLVALKVRYRERIT (Synthetic peptide PP2Ac) [SEQ ID NO: 1]
binding of SET protein to cellulose-bound PP2Ac sequence [1]: bound by SET protein

PSSKSTEIKWKSGKDLTKRSSQ (Synthetic peptide SET) [SEQ ID NO: 2]
binding of PP2Ac protein to cellulose-bound SET sequence [2]: bound by PP2Ac protein

VKKKKIKAEIKI-ETVTLLVALKVRYRERIT (VKKKKIKAEIKIETVTLLVALKVRYRERIT) [Mut3DPT-PP2Ac]
apoptosis (Annexin V-FITC staining, flow cytometry) [3]: has apoptotic effect | apoptosis (Annexin V-FITC staining, flow cytometry) [4]: has apoptotic effect | apoptosis (Annexin V-FITC staining, flow cytometry) [5]: has an apoptotic effect | apoptosis (Annexin V-FITC staining, flow cytometry) [6]: has an apoptotic effect | apoptosis (Annexin V-FITC staining, flow cytometry) [7]: has an apoptotic effect

VKKKKIKAEIKI-PSSKSTEIKWKSGKDLTKRSSQ (VKKKKIKAEIKIPSSKSTEIKWKSGKDLTKRSSQ) [Mut3DPT-SET]
apoptosis (Annexin V-FITC staining, flow cytometry) [8]: slight apoptosis increase
